The target in one experiment is Large T antigen (Simian virus 40, UniProt P03070). The class given is functional, Betapolyomavirus macacae.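 Also: Confirmatory-stage PubChem screen for compounds that inhibit SV40 T antigen.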
Experiment [1] has as its target T1, Replicative DNA helicase DnaB (Mycobacterium tuberculosis, UniProt P9WMR3).
T1 sequence (P9WMR3 whole entry): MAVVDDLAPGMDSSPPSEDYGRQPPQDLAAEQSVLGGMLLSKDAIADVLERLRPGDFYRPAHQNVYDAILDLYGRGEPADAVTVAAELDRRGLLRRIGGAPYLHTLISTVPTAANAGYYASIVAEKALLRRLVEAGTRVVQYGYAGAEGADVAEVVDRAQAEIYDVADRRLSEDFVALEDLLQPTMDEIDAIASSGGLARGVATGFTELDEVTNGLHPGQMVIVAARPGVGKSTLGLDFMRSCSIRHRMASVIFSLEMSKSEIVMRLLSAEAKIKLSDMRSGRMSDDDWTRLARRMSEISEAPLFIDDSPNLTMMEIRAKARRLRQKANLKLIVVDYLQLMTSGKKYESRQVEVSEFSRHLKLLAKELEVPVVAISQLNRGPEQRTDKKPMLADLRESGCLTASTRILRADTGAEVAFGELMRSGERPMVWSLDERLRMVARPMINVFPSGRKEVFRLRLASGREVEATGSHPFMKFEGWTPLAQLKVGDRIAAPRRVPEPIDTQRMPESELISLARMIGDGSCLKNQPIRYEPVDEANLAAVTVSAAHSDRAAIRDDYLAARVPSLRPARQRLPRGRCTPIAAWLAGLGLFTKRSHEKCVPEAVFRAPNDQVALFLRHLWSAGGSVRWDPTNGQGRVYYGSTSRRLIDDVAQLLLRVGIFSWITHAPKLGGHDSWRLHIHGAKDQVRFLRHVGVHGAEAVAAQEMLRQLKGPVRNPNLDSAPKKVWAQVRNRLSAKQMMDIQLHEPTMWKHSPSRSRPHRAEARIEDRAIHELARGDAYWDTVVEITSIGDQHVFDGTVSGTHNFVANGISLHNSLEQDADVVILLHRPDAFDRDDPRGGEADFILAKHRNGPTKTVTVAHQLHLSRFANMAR
Put plainly: DnaB intein splicing inhibitors, dose response, biochemical, cell-free fluorescence (AID 449749). The class given is functional.

A further experiment has as its target T2, Protein RecA (Mycobacterium tuberculosis, UniProt P9WHJ3).
T2 sequence (P9WHJ3 whole entry): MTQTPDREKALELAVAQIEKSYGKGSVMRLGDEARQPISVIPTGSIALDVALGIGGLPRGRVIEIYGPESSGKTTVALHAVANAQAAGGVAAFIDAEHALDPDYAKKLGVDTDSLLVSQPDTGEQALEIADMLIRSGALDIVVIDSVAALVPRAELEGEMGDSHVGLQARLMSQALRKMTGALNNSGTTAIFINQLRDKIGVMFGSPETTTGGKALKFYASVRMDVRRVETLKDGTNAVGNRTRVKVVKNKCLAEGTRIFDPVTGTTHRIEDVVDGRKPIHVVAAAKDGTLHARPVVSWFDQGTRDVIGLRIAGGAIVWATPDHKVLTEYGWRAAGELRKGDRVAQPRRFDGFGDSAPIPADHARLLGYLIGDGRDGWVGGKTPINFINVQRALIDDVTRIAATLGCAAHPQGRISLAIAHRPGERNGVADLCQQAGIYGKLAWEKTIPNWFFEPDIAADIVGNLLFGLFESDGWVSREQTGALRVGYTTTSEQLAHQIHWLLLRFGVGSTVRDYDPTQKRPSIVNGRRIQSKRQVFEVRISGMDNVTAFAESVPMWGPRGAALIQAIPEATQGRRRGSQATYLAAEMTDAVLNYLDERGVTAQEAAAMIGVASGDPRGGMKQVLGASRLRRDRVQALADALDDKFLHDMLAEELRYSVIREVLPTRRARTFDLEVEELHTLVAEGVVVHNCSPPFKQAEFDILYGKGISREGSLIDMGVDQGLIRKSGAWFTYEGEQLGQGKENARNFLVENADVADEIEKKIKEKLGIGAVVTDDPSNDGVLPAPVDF
Put plainly: Fluorescence Cell-Free Homogeneous Dose Retest to Identify Inhibitors of RecA-Intein Splicing Activity. [Related pubchem assays (depositor defined):AID2097, AID2223, AID489010, AID492950]. The class given is functional.

The target of a further experiment is Transthyretin (Homo sapiens, UniProt P02766). Description: Luminescence-based cell-based high throughput dose response assay to identify activators of Transthyretin (TTR) transcription. The class given is functional.
Experiment [2] has as its target T3, Sphingosine 1-phosphate receptor 2 (Homo sapiens, UniProt O95136). Put plainly: Dose Response Cell Based Assay for Antagonists of the S1P2 Receptor. [Related pubchem assays: 856, 736 ]. The class given is functional.
Experiment [3] concerns the target T3, Sphingosine 1-phosphate receptor 2. Put plainly: Dose Response Cell Based Assay for Agonists of the S1P2 Receptor. [Related pubchem assays: 729, 736, 843 ]. The class given is functional.
Experiment [4] in a line: Dose-response inhibition of insulin secretion in a rat insulinoma line at 5 mM glucose (AID 1117331). The class given is functional, cell-based. As to conditions: INS-1E.
The nature of experiment [5]: half-maximal inhibitory concentration for glucagon-like peptide-1 release, STC-1 cell line, dose-response (AID 1117345). The class given is functional, cell-based.
The nature of experiment [6]: Glucagon-like peptide 1 release potency, NCI-H716 cell line, dose-response, half-maximal inhibitory concentration (AID 1117344). The class given is functional, cell-based.
A short description of experiment [7]: NIH-3T3 fibroblast cytotoxicity, dose response, cytotoxicity control, cell-based, fluorescence, Alamar Blue, secondary assay (AID 2327).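 Also: NIH-3T3 mouse fibroblasts cultured with fluconazole at 8 µg/mL.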 The class given is functional. (In general: Alamar Blue is a resazurin reagent that responds to reducing activity.)
Experiment [8] relates to Streptococcus sp. 'group A'. Put plainly: growth inhibition of control SK(-) GAS strain, dose response, counter-screen for streptokinase expression inhibitor project, luminescence, kanamycin, BacTiterGlo, confirmation (AID 1900). The class given is functional, organism-based. In general terms: The purpose of a counterscreen is to sort out artefacts and off-target activity.

The subject of experiment [9] is BJ. Put plainly: cytotoxicity toward BJ-TERT fibroblasts, dose response, cell-based, RAS-independent, luminescence (AID 1933). The class given is functional. As to conditions: Homo sapiens.
In the next experiment the target is T4, Streptokinase A (Streptococcus pyogenes serotype M1, UniProt P10520).
T4 sequence (P10520 whole entry): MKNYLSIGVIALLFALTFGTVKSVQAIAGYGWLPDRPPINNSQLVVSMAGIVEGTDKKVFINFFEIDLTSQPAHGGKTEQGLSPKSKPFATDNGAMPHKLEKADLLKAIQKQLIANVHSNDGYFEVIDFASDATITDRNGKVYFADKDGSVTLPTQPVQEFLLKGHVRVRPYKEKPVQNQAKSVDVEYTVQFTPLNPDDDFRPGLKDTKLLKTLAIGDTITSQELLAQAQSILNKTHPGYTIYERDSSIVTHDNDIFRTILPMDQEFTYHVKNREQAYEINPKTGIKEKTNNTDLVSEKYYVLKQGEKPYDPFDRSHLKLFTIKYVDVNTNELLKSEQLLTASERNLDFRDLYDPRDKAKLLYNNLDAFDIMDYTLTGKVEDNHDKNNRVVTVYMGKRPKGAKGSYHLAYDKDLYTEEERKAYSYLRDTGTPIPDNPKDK
Description: S. pyogenes streptokinase expression inhibitors, potency, dose response, plasminogen activation absorbance, OD405 (AID 1914).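 Also: secreted streptokinase activity via plasminogen activation per viability signal from cell pellet.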 The class given is functional, Streptococcus pyogenes M1 GAS.

Experiment [10] relates to BJ. Description: cells. The class given is functional, cell-based. As to conditions: Homo sapiens.
A short description of experiment [11]: C. albicans growth with fluconazole, confirmation, fluorescence, retest (AID 2467). The class given is functional, cell-based.
The nature of experiment [12]: growth suppression of PTEN-null colon cells, dose response, cell-based, HCT116 PTEN knockout (AID 1047).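 Also: HCT116 colon tumor cells with PTEN knocked out; cells exposed to compound for 60 hours before readout; potency for loss of cell viability measured by luminescence.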 The class given is functional.
The nature of experiment [13]: growth suppression of beta-catenin-knockout colon cells, dose response, cell-based, HCT116, human colon tumor (AID 1045).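 Also: HCT116 colon tumor cells with beta catenin knocked out; cells exposed to compound for 60 hours.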 The class given is functional.
The subject of experiment [14] is BJ. Put plainly: cytotoxicity toward BJ-TERT-LT-ST fibroblasts, dose response, cell-based, RAS-independent, luminescence (AID 1935).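 Also: BJ fibroblasts immortalized with TERT plus LT and ST oncogenes.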 The class given is functional. As to conditions: Homo sapiens.
Experiment [15] is described as follows: cytotoxicity toward DRD oncogenic fibroblasts, dose response, cell-based, non-viral oncogenic, luminescence (AID 1934). The class given is functional. The note with it: Homo sapiens.
The next experiment deals with Streptococcus. Put plainly: Group A Streptococcus viability loss, dose response, counter-screen for streptokinase expression inhibitor project, luminescence, BacTiterGlo (AID 1915).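 Also: potency for reduction of bacterial viability or growth.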 The class given is functional, organism-based.
Experiment [16] addresses Eukaryotic translation initiation factor 4E (Mus musculus, UniProt P63073). Description: eIF4E–eIF4G protein interaction inhibitors, dose response, biochemical, TR-FRET (AID 855).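 Also: potency for disrupting eIF4E binding to eIF4GI seen as loss of FRET.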 The class given is functional.
The nature of experiment [17]: cytotoxicity in HEK-293T cells, dose response, cytotoxicity control for TCR NF-kB inhibitor project, luminescence, T-cell screen hits (AID 489026).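 Also: cells exposed to compound about 14 hours before the viability readout.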 The class given is functional, cell-based.
A further experiment has as its target Nonstructural protein 1 (Influenza A virus, UniProt Q194T2). The class given is functional, Influenza A virus (A/California/07/2009(H1N1)).
Experiment [18] deals with BJ. Description: cytotoxicity toward Ras-transformed BJeLR fibroblasts, dose response, cell-based, alamar blue fluorescence, cherrypicked samples (AID 2631).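 Also: confirmatory dose-response assay in RAS-dependent BJ fibroblasts engineered with TERT, LT and ST, with cytotoxicity read by fluorescence.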 As to conditions: Homo sapiens. The class given is functional.
The nature of experiment [19]: HeLa cell cytotoxicity, dose response, cytotoxicity control for MgcRacGAP inhibitor project (AID 624300). The class given is functional.
Experiment [20] addresses T5, Rac GTPase-activating protein 1 (Homo sapiens, UniProt Q9H0H5).
T5 sequence (Q9H0H5 whole entry): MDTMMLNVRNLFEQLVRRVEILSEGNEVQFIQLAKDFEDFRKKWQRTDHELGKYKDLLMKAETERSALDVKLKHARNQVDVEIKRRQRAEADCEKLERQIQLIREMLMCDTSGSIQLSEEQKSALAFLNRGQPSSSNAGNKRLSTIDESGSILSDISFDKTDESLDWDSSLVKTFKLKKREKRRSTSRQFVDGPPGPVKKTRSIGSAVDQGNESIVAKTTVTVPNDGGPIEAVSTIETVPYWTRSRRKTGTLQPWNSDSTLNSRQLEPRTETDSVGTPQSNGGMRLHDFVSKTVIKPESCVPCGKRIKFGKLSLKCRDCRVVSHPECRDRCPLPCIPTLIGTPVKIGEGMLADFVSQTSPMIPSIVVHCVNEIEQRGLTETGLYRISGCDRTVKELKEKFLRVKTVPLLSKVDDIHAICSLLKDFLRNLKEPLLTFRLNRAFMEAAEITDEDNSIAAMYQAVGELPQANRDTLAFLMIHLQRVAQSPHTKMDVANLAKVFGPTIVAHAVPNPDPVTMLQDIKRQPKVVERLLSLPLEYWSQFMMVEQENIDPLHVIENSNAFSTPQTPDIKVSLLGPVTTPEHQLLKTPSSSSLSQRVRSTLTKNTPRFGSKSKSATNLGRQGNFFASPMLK
Put plainly: MgcRacGAP GTPase-activating activity inhibitors, confirmation, biochemical, ADP Hunter fluorescence, primary and confirmatory (AID 624330). The class given is functional.

Each structure is given as a SMILES string. Activity calls are given as the source filed them.

T3 sequence (O95136 whole entry): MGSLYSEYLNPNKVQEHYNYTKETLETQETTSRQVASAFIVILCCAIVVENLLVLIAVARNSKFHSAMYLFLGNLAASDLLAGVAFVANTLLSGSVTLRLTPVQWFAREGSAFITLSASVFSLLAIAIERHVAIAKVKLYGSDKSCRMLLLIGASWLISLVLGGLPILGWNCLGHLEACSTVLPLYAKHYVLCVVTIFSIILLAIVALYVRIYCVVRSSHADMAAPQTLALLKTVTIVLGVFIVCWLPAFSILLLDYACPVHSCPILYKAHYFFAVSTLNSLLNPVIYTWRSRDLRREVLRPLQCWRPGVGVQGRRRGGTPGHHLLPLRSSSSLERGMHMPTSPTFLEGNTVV
Chain of Eukaryotic translation initiation factor 4E (P63073 whole entry): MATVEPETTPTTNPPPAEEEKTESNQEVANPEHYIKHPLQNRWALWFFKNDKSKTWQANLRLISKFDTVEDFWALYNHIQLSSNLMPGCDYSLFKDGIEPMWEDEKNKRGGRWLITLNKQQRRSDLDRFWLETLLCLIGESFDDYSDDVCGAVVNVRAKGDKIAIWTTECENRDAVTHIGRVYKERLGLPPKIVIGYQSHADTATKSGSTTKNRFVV
Chain of Large T antigen (P03070 whole entry): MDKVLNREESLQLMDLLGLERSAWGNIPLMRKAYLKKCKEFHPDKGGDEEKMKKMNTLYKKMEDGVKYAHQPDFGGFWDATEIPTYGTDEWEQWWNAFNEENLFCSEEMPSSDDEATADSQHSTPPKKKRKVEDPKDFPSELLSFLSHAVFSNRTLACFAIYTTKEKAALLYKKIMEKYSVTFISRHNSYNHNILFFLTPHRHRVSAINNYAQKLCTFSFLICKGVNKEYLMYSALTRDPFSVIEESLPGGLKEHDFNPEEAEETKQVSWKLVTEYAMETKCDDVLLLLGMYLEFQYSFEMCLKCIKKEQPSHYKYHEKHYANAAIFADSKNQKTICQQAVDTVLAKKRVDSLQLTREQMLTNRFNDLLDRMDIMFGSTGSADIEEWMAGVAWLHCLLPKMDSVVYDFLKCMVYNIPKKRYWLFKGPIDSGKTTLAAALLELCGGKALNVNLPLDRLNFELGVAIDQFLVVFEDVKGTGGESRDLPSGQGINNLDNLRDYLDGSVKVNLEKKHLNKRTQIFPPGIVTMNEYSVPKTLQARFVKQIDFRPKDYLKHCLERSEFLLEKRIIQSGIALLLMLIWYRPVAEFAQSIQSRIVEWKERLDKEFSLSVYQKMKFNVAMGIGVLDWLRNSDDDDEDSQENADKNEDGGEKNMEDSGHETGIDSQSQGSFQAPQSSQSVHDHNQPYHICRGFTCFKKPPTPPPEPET
Chain of Nonstructural protein 1 (Q194T2 whole entry): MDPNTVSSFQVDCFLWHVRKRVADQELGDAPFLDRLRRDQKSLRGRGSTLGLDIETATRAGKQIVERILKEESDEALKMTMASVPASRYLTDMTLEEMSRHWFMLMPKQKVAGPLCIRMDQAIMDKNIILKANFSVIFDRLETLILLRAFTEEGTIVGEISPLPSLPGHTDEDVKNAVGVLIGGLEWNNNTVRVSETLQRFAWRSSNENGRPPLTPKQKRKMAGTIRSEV

A word on the IC50: it is the concentration that gives 50% inhibition. The AC50 is the midpoint of the concentration-response curve, whichever way the signal moves. A word on the EC50: it is the concentration giving half of the maximal effect. `O=C(CCl)c1cc2c3c(c1)CC(=O)N3CCC2`: at Large T antigen, the IC50 was 40.6 µM (active). Also, the AC50 in [1] is 35.9 µM (active). The values for the EC50 at Protein RecA and at Transthyretin were 11.7 µM (active) and > 167 µM (inactive), respectively.
Consider `O=C(O)c1sc2cc(C(F)(F)F)cnc2c1-c1ccco1`, for which, in [2], the IC50 is > 30 µM (not active).
For `CS(=O)(=O)NCc1nnc(SCC(=O)NC2CCCCC2)n1-c1ccc(F)cc1`, the EC50 in experiment [3] is on record as > 50 µM (not active).
Regarding `COC(=O)C(Cl)C(=O)OC`, the IC50 was > 33.3 µM (inactive) in experiment [4], 8.37 µM (inactive) in experiment [5] and > 40 µM (inactive) in experiment [6].
Broadly, the CC50 is the concentration giving 50% cytotoxicity. Turning to `CCN1/C(=C/c2ccc3ccccc3[n+]2CC)C=Cc2ccccc21`, the EC50 in experiment [7] is 12 µM (active); in experiment [8], 4.74 µM (active); with BJ [9], 1.21 µM (active); on Streptokinase A it was > 150 µM (not active); with BJ [10], 2.73 µM (active); in experiment [11] it was 0.639 µM (active). Further, the EC50 in experiment [12] is 0.249 µM (active); in experiment [13] it was 0.167 µM (active); with BJ [14], 3.1 µM (inconclusive); in experiment [15], 3.27 µM (active); with Streptococcus, 35 µM (active); in the experiment with BJ [18], 1.89 µM (active). Also, the IC50 is 3.1 µM (active) in experiment [2]; 33.8 µM (inactive) in [16]; 33.1 µM (inactive) in experiment [17]; 12.8 µM (active) on Nonstructural protein 1; 46.5 µM (active) in experiment [20]. For the same compound, the CC50 in experiment [19] was 19 µM (active).
For `Cc1ccc(O)cc1` [p-CRESOL], the results for the IC50 in experiment [4], in [5] and in [6] were > 33.3 µM (inactive), > 40 µM (inactive) and > 40 µM (inactive), respectively.

The record behind these values is ChEMBL document CHEMBL1201862, “PubChem BioAssay data set” (2004).
